Literature values as cited in US20150218090A1, “DOSAGE REGIMEN FOR AN S1P RECEPTOR MODULATOR OR AGONIST” (NOVARTIS AG, priority 2011, published 2015).

Conditions: administration of 1.25 mg of FTY720; healthy subjects

CCCCCCCCc1ccc(CCC(N)(CO)CO)cc1 [FTY720, 2-amino-2-[2-(4-octylphenyl)ethyl]propane-1,3-diol]
decrease in heart rate: approximately 8 beats/min
